What was measured:
Experiment in all cases: Inhibition zone test of compositions on Mueller Hinton lawn
Format in all cases: cell-based
[1] = tested on: E. coli O157:H7; conditions: for Zone of growth inhibition: MPK2 200 AU/mL, 24 hours
Experimental: (§1) Different compositions comprising the MicroPacin K2 polypeptide were prepared in different vehicles: 10% w/v methanol, 10% w/v glycerol, 0.5% w/v polyethylene glycol, and water. In the case of the MicroPacin K2 polypeptide, it was used at a concentration of 200 AU/mL in each composition.
(§2) A 5 μL aliquot of each of the prepared compositions was taken and added to a plate with Mueller Hinton medium containing the sensitivity indicator bacteria, previously seeded in the form of a lawn. The plates were then incubated for 24 hours, and the antibacterial activity of the compositions was observed according to the appearance and size of the inhibition zone. This test, in turn, was performed under the same conditions with the commercial bacteriocin Nisin as a comparator agent, which is considered a gold standard bacteriocin, for being approved by the FDA (Food and Drug Administration).
(§3) In this example, the antibacterial effect of compositions comprising the polypeptide MicroPacin K2 and an additional antibacterial agent, including nisin (5,000 AU/mL), ampicillin (0.01 μg/mL), and tetracycline (0.05 μg/mL), is evaluated. The assay was performed using distilled water as the vehicle for the composition. The final concentration of MicroPacin K2 in the compositions evaluated was 200 AU/mL.

[2] = tested on: E. coli DH5α; conditions: MPK2 200 AU/mL, 24 hours
Experimental: as §1, §2, §3

[3] = tested on: B. cereus; conditions: MPK2 200 AU/mL, 24 hours
Experimental: as §1, §2, §3

[4] = tested on: S. saprophyticus; conditions: MPK2 200 AU/mL, 24 hours
Experimental: as §1, §2, §3

[5] = tested on: L. monocytogenes; conditions: MPK2 200 AU/mL, 24 hours
Experimental: as §1, §2, §3

[6] = tested on: C. freundii; conditions: MPK2 200 AU/mL, 24 hours
Experimental: as §1, §2, §3

[7] = tested on: S. sonnei; conditions: for Zone of growth inhibition: S. sonnei, MPK2 200 AU/mL, 24 hours
Experimental: as §1, §2, §3

[8] = tested on: S. aureus; conditions: MPK2 200 AU/mL, 24 hours
Experimental: as §1, §2, §3

Nisin [reference compound]
10.0 mm: Zone of growth inhibition ([4]; vehicle Glycerol 10%) | Zone of growth inhibition ([4]; vehicle H2O) | Zone of growth inhibition ([4]; vehicle Methanol 10%)
7.0 mm: Zone of growth inhibition ([6]; vehicle PEG 0.5%)
0 mm: Zone of growth inhibition ([1]; vehicle Glycerol 10%) | Zone of growth inhibition ([1]; vehicle H2O) | Zone of growth inhibition ([1]; vehicle Methanol 10%) | Zone of growth inhibition ([1]; vehicle PEG 0.5%) | Zone of growth inhibition ([7]; vehicle Glycerol 10%) | Zone of growth inhibition ([7]; vehicle H2O) | Zone of growth inhibition ([7]; vehicle Methanol 10%) | Zone of growth inhibition ([7]; vehicle PEG 0.5%)
9.0 mm: Zone of growth inhibition ([3]; vehicle Glycerol 10%) | Zone of growth inhibition ([3]; vehicle PEG 0.5%) | Zone of growth inhibition ([4]; vehicle PEG 0.5%) | Zone of growth inhibition ([5]; vehicle Glycerol 10%) | Zone of growth inhibition ([5]; vehicle H2O) | Zone of growth inhibition ([5]; vehicle Methanol 10%) | Zone of growth inhibition ([5]; vehicle PEG 0.5%) | Zone of growth inhibition ([8]; vehicle Glycerol 10%) | Zone of growth inhibition ([8]; vehicle H2O)
not able to inhibit their growth: Inhibition of growth (inhibition halo) ([1]; compositions) | Inhibition of growth (inhibition halo) ([7]; Shigella sonnei, compositions)
8.0 mm: Zone of growth inhibition ([2]; vehicle Glycerol 10%) | Zone of growth inhibition ([2]; vehicle H2O) | Zone of growth inhibition ([2]; vehicle Methanol 10%) | Zone of growth inhibition ([2]; vehicle PEG 0.5%) | Zone of growth inhibition ([3]; vehicle H2O) | Zone of growth inhibition ([3]; vehicle Methanol 10%) | Zone of growth inhibition ([6]; vehicle Glycerol 10%) | Zone of growth inhibition ([6]; vehicle H2O) | Zone of growth inhibition ([6]; vehicle Methanol 10%) | Zone of growth inhibition ([8]; vehicle Methanol 10%) | Zone of growth inhibition ([8]; vehicle PEG 0.5%)

Source: patent US20260070951A1, “MICROPAKINE K2 ANTIMICROBIAL POLYPEPTIDE, COMPOSITION COMPRISING IT AND USE FOR TREATING BACTERIAL INFECTIONS” (priority 2022, published 2026)
